Results on seven molecules are retold here after ChEMBL document CHEMBL1777673, “Synthesis and biological evaluation of 3-alkyl-dihydrotetrabenazine derivatives as vesicular monoamine transporter-2 (VMAT2) ligands” (Bioorg Med Chem Lett, 2011).

The target in data set [1] is T1, Synaptic vesicular amine transporter (Rattus norvegicus, UniProt Q01827). In words: Displacement of [18F](+)-FP-DTBZ from VMAT2 in rat striatal homogenate after 60 mins by gamma counting. For orientation: Loss of bound radioactivity is the signal in a displacement assay; it reports binding, not function.
T1 sequence (Q01827 whole entry): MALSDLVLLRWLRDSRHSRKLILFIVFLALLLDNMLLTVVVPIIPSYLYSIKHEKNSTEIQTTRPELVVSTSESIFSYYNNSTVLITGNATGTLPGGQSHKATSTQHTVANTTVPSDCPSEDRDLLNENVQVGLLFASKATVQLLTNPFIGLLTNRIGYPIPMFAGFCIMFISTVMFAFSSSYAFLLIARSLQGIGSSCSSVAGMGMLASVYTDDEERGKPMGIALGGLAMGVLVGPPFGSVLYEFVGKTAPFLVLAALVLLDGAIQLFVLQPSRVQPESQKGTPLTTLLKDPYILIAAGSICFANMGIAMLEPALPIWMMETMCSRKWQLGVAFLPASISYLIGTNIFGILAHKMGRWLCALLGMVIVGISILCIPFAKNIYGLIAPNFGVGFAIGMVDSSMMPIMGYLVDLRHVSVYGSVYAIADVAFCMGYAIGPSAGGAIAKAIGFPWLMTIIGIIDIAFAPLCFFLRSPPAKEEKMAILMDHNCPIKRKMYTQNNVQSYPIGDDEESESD
Data set [2] deals with T1, Synaptic vesicular amine transporter. In words: Displacement of [125I]-iodovinyl-TBZ from VMAT2 in rat striatal homogenate after 60 mins by gamma counting.
The test system of a further data set is Nucleic Acid. In words: Ratio of drug uptake in striatum to cerebellum in ICR mouse at 10 to 20 uCi, iv by gamma counting. To be noted: in vivo. It counts as ADME, organism-based.

Broadly, the Ki is the equilibrium dissociation constant of an inhibitor or competing ligand from its target. A higher Ki goes with weaker binding. In turn, `C=CCC1CN2CCc3cc(OC)c(OC)cc3C2C[C@H]1O` (mixture of isomers) came in with a Ki in data set [1] of 253 nM.

`COc1cc2c(cc1OC)C1C[C@@H](O)C(CC3CCC3)CN1CC2` (mixture of isomers) had an inhibition constant Ki in data set [2] of 26.9 nM. In turn, `COc1cc2c(cc1OC)C1C[C@@H](O)C(CC3CCCC3)CN1CC2` (mixture of isomers) registered a Ki in data set [2] of 227 nM.

In turn, `COc1cc2c(cc1OC)C1C[C@@H](O)C(CC3CCCCC3)CN1CC2` (mixture of isomers) had a Ki in data set [2] of 137 nM.

Turning to `C/C=C/C1CN2CCc3cc(OCCCF)c(OC)cc3C2C[C@H]1O` (mixture of isomers), affinity in data set [1] was put at a Ki of 22.4 nM. With `COc1cc2c(cc1OCCC[18F])CCN1C[C@@H](CC(C)C)[C@H](O)C[C@H]21` [FLORBENAZINE F 18], in the data set on Nucleic Acid, the Ratio is 4.51. As for `COc1cc2c(cc1OCCCF)CCN1C[C@@H](CC(C)C)[C@H](O)C[C@H]21` [FLORBENAZINE], in data set [2], the Ki turned out to be 0.1 nM. That is a sub-nanomolar value.
